Laboratory results as given in patent publication US6756504B2, “Sphingolipids” (Yissum Research Development Company of the Hebrew …, priority 2000, dated 2004).
One block for each compound: values may come before it.

Assays:
HL60 cells [1] = test: HL60 total protein content (Bradford); assay type: cell-based, Human
Experimental: (§1) HL60: Human leukemia cell line (ATCC CCL-240).
The effect of the AD-2646 compound on cell viability was further supported when the total protein content was quantified. HL60 cells were incubated as described above, with different concentrations of AD-2646. After 2 days the cells were collected, washed twice with saline, dispersed and following a short pulsing with a probe-sonicator their protein content was quantified by the Bradford procedure. Similarly to the viable cell counting results, the protein measurements indicated an IC50 value of 5 μM.
To analyze whether the AD-2646 compound may mediate its effect on cell viability and on total protein content, in cooperation with other compounds, the cooperative effect of this compound and Taxol was next evaluated. HL60 cells were incubated for two days with 4 μM AD2646 in the presence or absence of 2 ng Taxol.
The effect of different compounds of the invention on cell viability was next evaluated by measuring total cell protein quantity. Different cell lines were incubated for two days in the presence of increasing concentrations of the different compounds of the present invention.

[2] = test system: Bod3-GC (glucosylceramide) synthesis in HL60 cells; test: Sphingolipid metabolism from Bodipy-C3-ceramide: Bod3-GC in HL60; assay type: cell-based, Human; settings: for reduction of the level of Bod3-GC (fluorescent image): HL60, 10 μM
Experimental: (§2) In order to examine the effect of the different compounds on sphingolipids metabolism, different cell lines were incubated with increasing concentrations of different compounds of the invention in the presence of 2.5 μM Bodipy-C3-ceramide that was added to the culture medium as a solution in dimethylsulfoxide (not exceeding 0.1% DMSO of the final volium). After 3 hours, cells and medium were collected and centrifuged. Cells were next extracted with chloroform-methanol containing 2% acetic acid 1:1 (by volume) and the medium was shaken with an equal volume of chloroform-methanol, 1:1 (by volume). The phases were separated by centrifugation and the lower chloroform phase was collected. The solvents were evaporated and applied to thin layer chromatography silica gel plates (Whatman 4865-821) with a concentrating zone.
(§3) Plates were developed as follows: For medium: in chloroform-methanol-H2O, 75:25:4 by volume. For cells: plates were first developed with chloroform-methanol, 9:1, then dried and re-run in chloroform-methanol: H2O, 65:35:4.
(§4) Standards of Bodipy-C3-ceramide: Bodipy-C3-glucosylceramide (Bod3-GC) and Bodipy C3 sphingomyelin (Bod3-SPM) were used as markers. The fluorescence of the respective Bod3-SPM and Bod3-GC spots was quantified using a Fuji FLA-2000 scanner.

[3] = test system: Bod3-SPM (sphingomyelin) synthesis in HL60 cells; test: Sphingolipid metabolism from Bodipy-C3-ceramide: Bod3-SPM in HL60; assay type: cell-based, Human; settings: for inhibition of Bod3-SPM (fluorescent image): HL60, 10 μM; for IC50: HL60, 3 hours, 2.5 μM Bodipy-C3-ceramide, read-out: od 3-SPM (IC50 for reduction of Bod3-SPM, cell+medium)
Experimental: as §2, §3, §4

HL60 cells [4] = test: Apoptosis in HL60 cells, propidium iodide flow cytometry (FACS); assay type: cell-based, Human
Experimental: The apoptotic effect of three different compounds was further examined on HL60 cells using a flow cytometry method. […] Washed cells were then treated with 5% Triton and stained with propidium iodide 0.5% mg in 0.1% sodium citrate pH 7.4. Analysis was performed using a Becton Dickinson Fluorescence Activated Cell Sorter (FACS).

HL60 cells [5] = test: HL60 cell viability, viable cell count (trypan blue); assay type: cell-based, Human; settings: HL60, 2 days, FIG. 1, read-out: IC50, number of living (non-blue) cells
Experimental: as §1
The effect of AD-2646 on cell viability was analyzed by measuring cell mortality (viable cell count) and/or total protein quantity.
HL60 cells grown in RMPI plus 10% fetal calf serum, were incubated with increasing concentrations of (2R,3R)-2-(N-tetradecylamine)-1-(4-nitro-phenyl)-1,3-propanediol (AD-2646) in 6- or 24-well dishes. […] After 2 days the cells were collected, washed twice with saline, treated with trypan blue and the number of living (non-blue) cells was counted. FIG. 1 indicates an IC50 value of 5 μM.
Kinetic of the observed killing effect of the AD-2646 compound was next examined. HL60 cells were incubated with 40 μM of AD-2646 for 1, 3, 5 and 7 hours. Already after 1 hour a reduction of 60% of the viable cell number was observed.

[6] = test system: Bod3-SPM synthesis in TSU-PR1 prostate cancer cells; test: Sphingolipid metabolism: Bod3-SPM in TSU-PR1; assay type: cell-based; settings: TSU-PR1, 3 hours, FIG. 5; read-out: IC50 for reduction of Bod3-SPM
Experimental: as §2, §3, §4
The effect of AD-2646 on sphingolipid metabolism was further examined using TSU-PR1 prostate cancer cells.

Swiss mice = test: In vivo toxicity of AD-2646, mice viability
Experimental: Six groups, each of 5 Swiss mice were injected, intra-peritoneally with solutions of AD-2646, at varying concentrations, each in a volume of 100 μl. Injections were performed on days 1, 2, 3, 4, and mice viability was tested (Table 5).

acid sphingomyelinase = target: T1, acid sphingomyelinase (Homo sapiens, UniProt P17405); test: Acid sphingomyelinase inhibition, HL60 sonicate; assay type: biochemical; settings: pH 5.0, 300 μM
T1 construct: a sonicate of HL60 leukemic cells was used as enzyme source; endogenous in cells; host or cells: HL60 leukemic cells (sonicate)
T1 sequence (P17405 47-631): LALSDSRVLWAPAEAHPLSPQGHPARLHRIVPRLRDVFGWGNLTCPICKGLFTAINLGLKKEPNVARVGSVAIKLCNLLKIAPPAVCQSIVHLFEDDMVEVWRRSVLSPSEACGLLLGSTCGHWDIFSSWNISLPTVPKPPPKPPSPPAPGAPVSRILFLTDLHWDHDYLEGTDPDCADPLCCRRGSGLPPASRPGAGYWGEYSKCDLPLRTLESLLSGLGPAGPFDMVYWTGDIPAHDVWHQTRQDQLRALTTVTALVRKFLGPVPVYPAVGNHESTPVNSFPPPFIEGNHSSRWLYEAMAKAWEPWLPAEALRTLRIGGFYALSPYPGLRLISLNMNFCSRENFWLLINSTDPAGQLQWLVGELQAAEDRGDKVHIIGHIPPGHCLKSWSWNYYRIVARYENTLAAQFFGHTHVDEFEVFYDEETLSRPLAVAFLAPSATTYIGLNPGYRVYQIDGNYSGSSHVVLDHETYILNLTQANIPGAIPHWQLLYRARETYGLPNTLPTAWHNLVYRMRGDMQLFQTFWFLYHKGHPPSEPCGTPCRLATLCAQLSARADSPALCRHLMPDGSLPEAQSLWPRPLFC
Experimental: (§5) N-hexyl-sphingosyl phosphorylcholine (AD-2144) was tested as to its inhibitory effect on sphingomyelinases, acidic (i.e., with an optimum at about pH 5) or neutral (with a pH optimum at about pH 7.4). For this purpose a sonicate of HL60 leukemic cells was used as enzyme source. Increasing concentrations of AD-2144 were dispersed by a mixture of fluorescent and non-fluorescent sphingomyelin (Bodipy-C12-SPM:SPM, 1:19), buffer and 0.25% Triton-X10O in a volume of 100 μl. For acid sphingomyelinase 0.4M acetate buffer pH 5.0 was used; for neutral sphingomyelinase 0.2M Tris buffer, pH 7.4 and 5 mM magnesium chloride. To 100 μl of these dispersions, 100 μl of HL60 cells sonicate were added. Incubation was 2-3 hours after which 0.8 ml of chloroform:methanol 2:1 were added, stirred and the lower, chloroform phase was collected, dried and applied to a thin layer chromatography plate. The plate was developed in a mixture of chloroform and methanol, 87:3. The fluorescence of the product, i.e., Bodipy-C12-ceramide, was quantified.

neutral sphingomyelinase = test: Neutral sphingomyelinase inhibition, HL60 sonicate; assay type: biochemical, Human; settings: pH 7.4, 300 μM
Experimental: as §5

[7] = literature (Wieder et al. 1998); cited from earlier work
[8] = HL60, two days, 4 μM AD-2646 plus 2 ng Taxol

IC50 (HL60 cells [1]; HL60, two days, read-out: C50 (cell viability, total cell protein)): 3 µM
SMILES: CC(C)(C)OC(=O)NCCCCCCCCCCCC(=O)Nc1ccc([C@H](O)[C@@H](CO)NC(=O)OC(C)(C)C)cc1 [AD-2620, (2R,3S)-2-BOC-amino-1-[4-N-(dodecanoyl-12-N-BOC amine)-phenyl)-1,3-propanediol]

SMILES: CCCCCCCCCCCC(=O)Nc1ccc([C@H](O)[C@@H](N)CO)cc1 [AD-2674]
reduction of the level of Bod3-GC (fluorescent image) ([2]; FIG. 6): much stronger reduction
inhibition of Bod3-SPM (fluorescent image) ([3]; FIG. 6): low inhibition

IC50 [3]: 6 µM
SMILES: CCCCCCCCCCCC(=O)Nc1ccc([C@@H](O)[C@H](N)CO)cc1 [AD-2673, (2R,3R)-2 amino-1-(N-dodecanoylaminophenyl)-1,3-propanediol]
reduction of the level of Bod3-GC (fluorescent image) ([2]; FIG. 6): much stronger reduction
inhibition of Bod3-SPM (fluorescent image) ([3]; FIG. 6): low inhibition

IC50 ([2]; HL60, 3 hours, 2.5 μM Bodipy-C3-ceramide, read-out: od 3-GC (IC50 for Bod3-GC reduction)): 12 µM
IC50 (HL60 cells [1]; HL60, 2 days, Bradford, read-out: IC50, protein content): 5 µM
IC50 [3]: ~6 µM
IC50 (HL60 cells [5]): 5 µM
IC50 [6]: ~5 µM
SMILES: CCCCCCCCCCCCCCN[C@H](CO)[C@H](O)c1ccc([N+](=O)[O-])cc1 [AD-2646, (2R,3R)-2-(N-tetradecylamine)-1-(4-nitrophenyl)-1,3-propanediol]
Protein content (HL60 cells [1]; [8]): 93 µg
cooperative effect with Taxol on total protein quantity (HL60 cells [1]; [8]): synergism
apoptotic cells (HL60 cells [4]; HL60, 3 hours, 10 μM): 12%
apoptotic cells (HL60 cells [4]; HL60, 3 hours, 20 μM): 18%
apoptotic cells (HL60 cells [4]; HL60, 3 hours, 40 μM): 26%
apoptotic cells (HL60 cells [4]; HL60, 24 hours, 10 μM): about 50%
No. of mice in each day (Swiss mice; 1 mg/kg i.p. days 1-4, groups of 5 mice, day 1): 5
No. of mice in each day (Swiss mice; 1 mg/kg i.p. days 1-4, groups of 5 mice, day 2): 5
No. of mice in each day (Swiss mice; 1 mg/kg i.p. days 1-4, groups of 5 mice, day 3): 5
No. of mice in each day (Swiss mice; 1 mg/kg i.p. days 1-4, groups of 5 mice, day 4): 5
No. of mice in each day (Swiss mice; 1 mg/kg i.p. days 1-4, groups of 5 mice, day 5): 5
No. of mice in each day (Swiss mice; 1 mg/kg i.p. days 1-4, groups of 5 mice, day 6): 5
No. of mice in each day (Swiss mice; 5 mg/kg i.p. days 1-4, groups of 5 mice, day 1): 5
No. of mice in each day (Swiss mice; 5 mg/kg i.p. days 1-4, groups of 5 mice, day 2): 5
No. of mice in each day (Swiss mice; 5 mg/kg i.p. days 1-4, groups of 5 mice, day 3): 5
No. of mice in each day (Swiss mice; 5 mg/kg i.p. days 1-4, groups of 5 mice, day 4): 5
No. of mice in each day (Swiss mice; 5 mg/kg i.p. days 1-4, groups of 5 mice, day 5): 5
No. of mice in each day (Swiss mice; 5 mg/kg i.p. days 1-4, groups of 5 mice, day 6): 5
No. of mice in each day (Swiss mice; 10 mg/kg i.p. days 1-4, groups of 5 mice, day 1): 5
No. of mice in each day (Swiss mice; 10 mg/kg i.p. days 1-4, groups of 5 mice, day 2): 5
No. of mice in each day (Swiss mice; 10 mg/kg i.p. days 1-4, groups of 5 mice, day 3): 5
No. of mice in each day (Swiss mice; 10 mg/kg i.p. days 1-4, groups of 5 mice, day 4): 5
No. of mice in each day (Swiss mice; 10 mg/kg i.p. days 1-4, groups of 5 mice, day 5): 5
No. of mice in each day (Swiss mice; 10 mg/kg i.p. days 1-4, groups of 5 mice, day 6): 5
No. of mice in each day (Swiss mice; 25 mg/kg i.p. days 1-4, groups of 5 mice, day 2): 5
No. of mice in each day (Swiss mice; 25 mg/kg i.p. days 1-4, groups of 5 mice, day 3): 5
No. of mice in each day (Swiss mice; 25 mg/kg i.p. days 1-4, groups of 5 mice, day 4): 5
No. of mice in each day (Swiss mice; 25 mg/kg i.p. days 1-4, groups of 5 mice, day 5): 5
No. of mice in each day (Swiss mice; 25 mg/kg i.p. days 1-4, groups of 5 mice, day 6): 5
No. of mice in each day (Swiss mice; 50 mg/kg i.p. days 1-4, groups of 5 mice, day 1): 5
No. of mice in each day (Swiss mice; 50 mg/kg i.p. days 1-4, groups of 5 mice, day 2): 5

SMILES: CC(=O)O[C@H]1C(=O)[C@@]2(C)[C@H]([C@H](OC(=O)c3ccccc3)[C@]3(O)C[C@H](OC(=O)[C@H](O)[C@@H](NC(=O)c4ccccc4)c4ccccc4)C(C)=C1C3(C)C)[C@]1(OC(C)=O)CO[C@@H]1C[C@@H]2O [Taxol, reference compound]
Protein content (HL60 cells [1]; HL60, two days, 2 ng Taxol alone): 206 µg

SMILES: CCCCCCCCCCCCC/C=C/[C@H](O)[C@@H](COP(=O)([O-])OCC[N+](C)(C)C)NCCCCCC [AD-2144, L-Erythro Sphingosyl Phosphorylcholine-N-Hexyl]
reduction in Bodipy-C12-ceramide (acid sphingomyelinase): over 60%
reduction in Bodipy-C12-ceramide (neutral sphingomyelinase): over 60%

IC50 [3]: 4 µM
SMILES: CCCCCCCCCCCCCCN[C@H](CO)[C@H](O)c1ccc(N)cc1 [AD-2672, (2R,3R)-2-(N-tetradecylamine)-1-(4-aminophenyl)-1,3-propanediol]
effect on level of Bod3-GC (fluorescent image) ([2]; HL60, 5 and 10 μM, FIG. 6): not
effect on level of Bod3-SPM (fluorescent image) ([3]; HL60, 5 and 10 μM, FIG. 6): strongly reduces

SMILES: CCCCCCCCCCCCCCCCOP(=O)([O-])OCC[N+](C)(C)C [HePC, hexadecylphosphocholine]
concentration shown to induce apoptosis [7]: 25 µM
